Results taken from PMC3914206.

How the values were obtained:
Type in all cases: binding
Settings in all cases: Compound Concentration 10 µM
[1] = target: T1, panel of 442 kinases (Homo sapiens, UniProt P07949, M918T)
T1 construct: purchased KINOMEscan
Source text: (§1) We assessed the selectivity of members of this scaffold using the KINOMEscan methodology across a near comprehensive panel of 442 kinases [[18,27]].

[2] = target: T2, panel of 442 kinases (Homo sapiens, UniProt P50750)
T2 construct: purchased KINOMEscan
Source text: as §1

[3] = target: T3, panel of 442 kinases (Homo sapiens, UniProt Q92630)
T3 construct: purchased KINOMEscan
T3 sequence (Q92630 1-601): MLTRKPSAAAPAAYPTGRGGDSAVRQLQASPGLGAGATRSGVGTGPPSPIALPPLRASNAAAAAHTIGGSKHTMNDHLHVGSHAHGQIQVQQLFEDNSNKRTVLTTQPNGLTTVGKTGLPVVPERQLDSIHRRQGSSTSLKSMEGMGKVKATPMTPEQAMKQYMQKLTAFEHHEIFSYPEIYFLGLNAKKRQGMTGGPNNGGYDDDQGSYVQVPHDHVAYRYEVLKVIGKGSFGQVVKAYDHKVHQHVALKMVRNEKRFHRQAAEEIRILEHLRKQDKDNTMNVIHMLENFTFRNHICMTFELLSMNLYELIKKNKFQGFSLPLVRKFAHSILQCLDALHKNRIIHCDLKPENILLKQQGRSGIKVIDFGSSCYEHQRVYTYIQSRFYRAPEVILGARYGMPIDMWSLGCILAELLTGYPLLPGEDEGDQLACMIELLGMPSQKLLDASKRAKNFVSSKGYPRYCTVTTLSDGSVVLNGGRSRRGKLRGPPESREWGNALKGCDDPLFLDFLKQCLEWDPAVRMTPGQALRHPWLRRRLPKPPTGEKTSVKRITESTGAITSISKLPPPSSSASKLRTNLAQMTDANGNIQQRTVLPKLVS
Source text: as §1

T1 sequence (P07949 29-1114 M918T): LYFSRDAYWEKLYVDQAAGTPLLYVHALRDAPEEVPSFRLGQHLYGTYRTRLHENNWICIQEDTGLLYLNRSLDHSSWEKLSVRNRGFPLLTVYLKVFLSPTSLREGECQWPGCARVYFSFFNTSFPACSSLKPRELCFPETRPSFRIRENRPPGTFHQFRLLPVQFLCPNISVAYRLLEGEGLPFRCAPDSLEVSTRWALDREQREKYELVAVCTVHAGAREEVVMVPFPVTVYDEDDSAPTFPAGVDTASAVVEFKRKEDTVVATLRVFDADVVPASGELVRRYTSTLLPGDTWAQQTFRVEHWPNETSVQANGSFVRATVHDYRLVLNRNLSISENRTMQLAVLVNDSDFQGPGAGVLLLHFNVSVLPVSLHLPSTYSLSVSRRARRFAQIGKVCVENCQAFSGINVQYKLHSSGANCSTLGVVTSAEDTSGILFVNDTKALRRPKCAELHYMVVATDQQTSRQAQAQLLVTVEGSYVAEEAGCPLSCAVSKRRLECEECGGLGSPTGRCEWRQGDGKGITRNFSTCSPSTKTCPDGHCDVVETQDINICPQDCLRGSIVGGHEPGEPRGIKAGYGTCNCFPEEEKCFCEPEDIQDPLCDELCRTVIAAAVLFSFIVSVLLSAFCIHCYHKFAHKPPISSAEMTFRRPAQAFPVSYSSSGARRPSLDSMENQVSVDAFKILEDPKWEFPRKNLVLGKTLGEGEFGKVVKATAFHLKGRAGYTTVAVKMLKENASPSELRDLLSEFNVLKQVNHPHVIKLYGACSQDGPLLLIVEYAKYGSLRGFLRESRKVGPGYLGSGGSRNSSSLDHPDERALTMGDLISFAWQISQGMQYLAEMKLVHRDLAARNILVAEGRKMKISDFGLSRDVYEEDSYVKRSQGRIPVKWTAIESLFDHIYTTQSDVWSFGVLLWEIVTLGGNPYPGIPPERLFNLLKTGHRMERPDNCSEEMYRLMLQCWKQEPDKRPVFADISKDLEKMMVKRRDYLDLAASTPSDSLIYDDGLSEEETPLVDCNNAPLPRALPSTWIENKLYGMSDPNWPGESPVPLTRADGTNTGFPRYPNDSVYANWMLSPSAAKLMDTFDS
T2 sequence (P50750 whole entry): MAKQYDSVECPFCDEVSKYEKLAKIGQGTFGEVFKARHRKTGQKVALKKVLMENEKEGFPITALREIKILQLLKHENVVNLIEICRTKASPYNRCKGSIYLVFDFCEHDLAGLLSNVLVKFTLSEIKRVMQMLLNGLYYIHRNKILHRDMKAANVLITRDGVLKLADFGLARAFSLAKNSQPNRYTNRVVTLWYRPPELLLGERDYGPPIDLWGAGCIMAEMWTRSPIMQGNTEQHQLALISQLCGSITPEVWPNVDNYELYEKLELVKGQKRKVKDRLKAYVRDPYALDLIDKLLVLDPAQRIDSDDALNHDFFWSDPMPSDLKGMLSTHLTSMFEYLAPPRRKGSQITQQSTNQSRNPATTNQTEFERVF

SMILES | KINOMEscan: RET(M918T) [1] | KINOMEscan: CDK9 [2] | KINOMEscan: DYRK2 [3]
CCOc1cc(C(=O)N2CCC(N3CCN(C)CC3)CC2)ccc1Nc1ncc2c(n1)N(C1CCCC1)c1ccccc1C(=O)N2C [Compound 26] | 100 | 100 | 100
COc1cc(C(=O)N2CCC(N3CCN(C)CC3)CC2)ccc1Nc1ncc2c(n1)N(C1CCCC1)c1ccccc1C(=O)N2C [Compound 25, 11-cyclopentyl-2-((2-methoxy-4-(4-(4-methylpiperazin-1-yl)piperidine-1-carbonyl)phenyl)amino)-5-methyl-5H-benzo[e]pyrimido[5,4-b][1,4]diazepin-6(11H)-one] | 94 | 98 | 100
COc1cc(C(=O)N2CCC(N3CCN(C)CC3)CC2)ccc1Nc1ncc2c(n1)N1CCc3cccc(c31)C(=O)N2C [Compound 24] | 81 | 96 | 82
COc1cc(C(=O)N2CCC(N3CCN(C)CC3)CC2)ccc1Nc1ncc2c(n1)N(C)c1ccccc1C(=O)N2C [15 (LRRK2-IN-1)] | 100 | 100 | 76
